The source of these data is PubChem BioAssay (NCI).

The structures appear in SMILES notation. “And” between values parts separate entries of the source, which are not always exact repeats. Equal entries are not always repeated.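 Cultured in 96-well plates, cells were exposed to test compound for 48 hours across five concentrations. GI50 = concentration required for 50% inhibition of growth. At the TGI there is no net growth.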

The experiment concerns MDA-MB-468 breast. The experiment is described as follows: NCI-60 cell line screen, 48 h.

With `NC(N)=Nc1ccc(Oc2cccc(NC(N)=Nc3ccc(Cl)c(C(F)(F)F)c3)c2)cn1`, the GI50 was 1380 nM and the TGI was determined as 3.13 µM.

Consider `COc1ccc(C2CC(c3cc(Cl)c(C)cc3O)=NN2c2ccc(S(N)(=O)=O)cc2)cc1OC` (stereo unspecified), for which the GI50 was 2580 nM and the TGI was 9.51 µM.

Consider `N#Cc1c(-c2ccccc2)cc(-c2ccccc2)n(CC(=O)NO)c1=O`, for which the GI50 was 3480 nM and the TGI is 14.5 µM.

On to `COc1cc(-c2n[nH]nc2-c2ccc3c(c2)OCCO3)cc(OC)c1OC`, for which the GI50 was 14.7 nM and the TGI worked out at 30.5 µM.

In the case of `CCCC(c1nnnn1C1CCCCC1)N1CCN(C(=O)c2ccco2)CC1` (stereo unspecified), the GI50 was > 100000 nM and the TGI was > 100 µM.

In the case of `COc1cc(C(=O)/C=C/c2ccc(OCCCCCC[P+](c3ccccc3)(c3ccccc3)c3ccccc3)cc2)cc(OC)c1OC`, the GI50 is 242 nM and the TGI is 0.705 µM.

As for `c1ccc(-c2c(-c3ccccc3)[n+](Cc3ccc4ccccc4c3)c(-c3cccc4ccccc34)n2Cc2ccc3ccccc3c2)cc1`, the GI50 is 47.3 nM and the TGI amounted to 0.281 µM.

Turning to `COCC(=O)Oc1cc(-c2ccc(C)cc2C)c(OC(=O)COC)c(-c2ccc(C)cc2C)c1`, the GI50 was 2790 nM and the TGI is 14.6 µM.

Consider `Clc1ccc(CCC(Cn2ccnc2)Sc2c(Cl)cccc2Cl)cc1` (stereo unspecified), for which the GI50 was 2130 nM and the TGI is 7.49 µM.

With `CCN1CCC(Oc2c(C#N)ncc3[nH]c4ncccc4c23)CC1`, the GI50 was 16000 nM and the TGI turned out to be 33.3 µM.

On to `COc1ccc(/C=C/c2nnc(/C=C/c3ccc(OC)c(OC)c3)o2)cc1OC`, for which the GI50 is 2880 nM and the TGI is 27.5 µM.

On to `Cc1cc2c([nH]1)CSc1cc(S(=O)(=O)c3ccccc3)c(=O)[nH]c1-2`, for which the GI50 was 4530 nM and the TGI was > 26.1 µM.

Turning to `COc1ccc2nc(NNC(=O)c3cnccn3)c3cccn3c2c1`, the GI50 was 287 nM and the TGI was 1.96 µM.

Regarding `CCCCCCCCc1cc[n+](CC(=O)c2ccc(Br)cc2)cc1`, the GI50 was 1230 nM and the TGI is 2.69 µM.

As to `COc1cc(/C=N/Nc2ncnc3[nH]ncc23)ccc1O`, the GI50 is 9900 nM and the TGI is > 25 µM.

As for `O=C(NCCCCNC(=O)OCc1ccc2c(Cl)cc(Cl)c(O)c2n1)OCc1ccc2c(Cl)cc(Cl)c(O)c2n1`, the GI50 was 532 nM and the TGI is > 100 µM.

As for `O=S1CCN(Cc2ccc(-c3ccc4ncnc(Nc5ccc(OCc6ccccc6)c(Cl)c5)c4c3)o2)CC1`, the GI50 is 44.9 nM and the TGI came out at 0.376 µM.

Consider `Cn1ncc2c(Sc3ccc(Cl)cc3)ncnc21`, for which the GI50 is 20700 nM and the TGI is > 100 µM.

`CC(C)(C)c1ccc(C(=O)Nc2sc3c(c2C#N)CCC(=O)C3)cc1`: the GI50 is 1330 nM and the TGI was 5.28 µM.

On to `COc1cc(-c2ccc3ncnc(NCc4ccccc4)c3c2)cnc1OC`, for which the GI50 is 1710 nM and the TGI worked out at 4.96 µM.

For the compound `NCCOc1ncccc1/C=C1\c2ccccc2-c2ccc(F)cc21`, the GI50 is 1330 nM and the TGI stood at 2.84 µM.

In the case of `CC(C)c1cc(C(=O)N2Cc3ccc(CN4CCN(C)CC4)cc3C2)c(O)cc1O`, the GI50 was 40.4 nM and 58.8 nM; the TGI is 3.72 µM and 0.378 µM.

With `CCCCNCC(O)c1cc2c(Cl)cc(Cl)cc2c2cc(C(F)(F)F)ccc12` (stereo unspecified), the GI50 was 1590 nM and the TGI was found to be 3.03 µM.

In the case of `Cc1ccc(C(=O)Nc2ccc(CNCCN3CCNCC3)c(C(F)(F)F)c2)cc1C#Cc1cnc2cccnn12`, the GI50 was 1650 nM and the TGI was 3.3 µM.

`Cn1cc(-c2nc3c(F)cc4[nH]ncc4c3c3c2CCCC3)c(C(F)(F)F)n1`: the GI50 was 6440 nM and the TGI amounted to 33.1 µM.

On to `C=C1C(=O)O[C@H]2[C@H]1CC/C(COC(=O)CCCCCCC(=O)OC/C1=C/CC[C@@]3(C)O[C@H]3[C@H]3OC(=O)C(=C)[C@@H]3CC1)=C\CC[C@@]1(C)O[C@@H]21`, for which the GI50 is 2160 nM and the TGI turned out to be 5.44 µM.

Consider `COc1ccc(/C=C(\C#N)c2ccc(OC)cc2)cc1`, for which the GI50 was 1610 nM and the TGI stood at 35 µM.

Consider `NS(=O)(=O)N(c1cc(C(F)(F)F)cc(C(F)(F)F)c1)C1CCN(Cc2ccc(F)cc2)CC1`, for which the GI50 is 1860 nM and the TGI turned out to be 4.76 µM.

As to `COC1=CC(c2ccc[nH]2)=N/C1=C\c1[nH]c(C)c(C(=O)CCCCC(=O)NCc2ccccc2)c1C`, the GI50 is 2600 nM and the TGI was 7.85 µM.

Turning to `O=C1/C(=C/c2ccc(Cl)cc2)COc2ccc(O)cc21`, the GI50 is 2060 nM and the TGI was found to be 4.55 µM.

Turning to `O=C1Nc2ccccc2/C1=C/C(=N/c1nnc(-c2ccccc2)s1)c1ccccc1`, the GI50 is 2710 nM and the TGI amounted to 8.1 µM.

Take `Nc1cc2c([nH]c[n+]2CC#CCCl)c(SCC#CCCl)n1`: the GI50 is 734 nM and the TGI was 2.4 µM.

Turning to `Cc1cc(C)c(-c2cc(O)c(-c3c(C)cc(C)cc3C)cc2O)c(C)c1`, the GI50 is 1960 nM and the TGI is 8.47 µM.

In the case of `COc1ccc(Nc2nccc(Nc3ccc4[nH]ncc4c3)n2)cc1`, the GI50 was 1700 nM and the TGI stood at 4.55 µM.

With `CC(=O)c1nc2ccccc2n1CCN1CCN(C)CC1`, the GI50 was 1910 nM and the TGI is > 22.3 µM.

`FC(F)(F)c1ccc(-c2cnc(Cl)nc2NC2CCCCCC2)cc1`: the GI50 was 55800 nM and the TGI was > 100 µM.

For the compound `CCN(Cc1ccncc1)c1ccc(CO)c(Cl)c1`, the GI50 is 35.4 nM and the TGI was 0.161 µM.

Regarding `O=C(CNc1nc(-c2cccc([N+](=O)[O-])c2)cs1)Nc1cccc([N+](=O)[O-])c1`, the GI50 was 1950 nM and the TGI is 4.92 µM.

Turning to `O=C(CCl)Nc1ccc2c(c1)C(=O)c1ccccc1C2=O`, the GI50 is 1760 nM and the TGI stood at 4.08 µM.

For the compound `C=C(C)C(=O)Oc1ccc(N=Nc2ccc(C)cc2)ccc1=O`, the GI50 is 2800 nM and the TGI was found to be 11.5 µM.

As for `CCCCCCCCc1ccc(OCCOCC[N+](C)(C)CC)cc1` (tested in a mixture with another compound), the GI50 was 430 nM and the TGI came to 2.32 µM.

Regarding `O=S1CCN(Cc2ccc(-c3ccc4ncnc(Nc5ccc(OCc6cccc(F)c6)c(Cl)c5)c4c3)o2)CC1`, the GI50 was 5.68 nM and the TGI is 0.0466 µM.

For `Cc1cc(-c2ncc(-c3cccnc3)cc2/C=C/c2ccccc2)cnc1-c1cccnc1`, the GI50 was > 20500 nM and the TGI was > 100 µM.
